Measurements published in patent publication US8026243B2, “[4,5′]Bipyrimidinyl-6,4′-diamine derivatives as protein kinase inhibitors” (Novartis AG, priority 2006, dated 2011).

molecular target: T1, Ba/F3-TEL-FGFR3 cells (Homo sapiens, UniProt P22607); experiment: FGFR3 cellular assay: proliferation of transformed Ba/F3-TEL-FGFR3 cells (AlamarBlue); assay type: cell-based; conditions: 48 hours incubation, class symbols
T1 construct: fused on or other part: The N-terminal oligomerising part of TEL (ETV6) is fused before the intracellular kinase part of FGFR3; P41212 (Transcription factor ETV6)
Procedure: Compounds of the invention are tested for their ability to inhibit transformed Ba/F3-TEL-FGFR3 cells proliferation, which is dependent on FGFR3 cellular kinase activity. Ba/F3-TEL-FGFR3 are cultured up to 800,000 cells/mL in suspension, with RPMI 1640 supplemented with 10% fetal bovine serum as the culture medium. Cells are dispensed into 384-well format plate at 5000 cell/well in […], culture medium. Compounds of the invention are dissolved and diluted in dimethylsulfoxide (DMSO). Twelve points 1:3 serial dilutions are made into DMSO to create concentrations gradient ranging typically from 10 mM to 0.05 μM. Cells are added with 50 nL of diluted compounds and incubated for 48 hours in cell culture incubator. AlamarBlue® (TREK Diagnostic Systems), which can be used to monitor the reducing environment created by proliferating cells, are added to cells at final concentration of 10%. After additional four hours of incubation in a 37° C. cell culture incubator, fluorescence signals from reduced AlamarBlue® (Excitation at 530 nm, Emission at 580 nm) are quantified on Analyst GT (Molecular Devices Corp.). IC50 values are calculated by linear regression analysis of the percentage inhibition of each compound at 12 concentrations.

T1 sequence (P22607 whole entry, change not shown, the tested form may be a part): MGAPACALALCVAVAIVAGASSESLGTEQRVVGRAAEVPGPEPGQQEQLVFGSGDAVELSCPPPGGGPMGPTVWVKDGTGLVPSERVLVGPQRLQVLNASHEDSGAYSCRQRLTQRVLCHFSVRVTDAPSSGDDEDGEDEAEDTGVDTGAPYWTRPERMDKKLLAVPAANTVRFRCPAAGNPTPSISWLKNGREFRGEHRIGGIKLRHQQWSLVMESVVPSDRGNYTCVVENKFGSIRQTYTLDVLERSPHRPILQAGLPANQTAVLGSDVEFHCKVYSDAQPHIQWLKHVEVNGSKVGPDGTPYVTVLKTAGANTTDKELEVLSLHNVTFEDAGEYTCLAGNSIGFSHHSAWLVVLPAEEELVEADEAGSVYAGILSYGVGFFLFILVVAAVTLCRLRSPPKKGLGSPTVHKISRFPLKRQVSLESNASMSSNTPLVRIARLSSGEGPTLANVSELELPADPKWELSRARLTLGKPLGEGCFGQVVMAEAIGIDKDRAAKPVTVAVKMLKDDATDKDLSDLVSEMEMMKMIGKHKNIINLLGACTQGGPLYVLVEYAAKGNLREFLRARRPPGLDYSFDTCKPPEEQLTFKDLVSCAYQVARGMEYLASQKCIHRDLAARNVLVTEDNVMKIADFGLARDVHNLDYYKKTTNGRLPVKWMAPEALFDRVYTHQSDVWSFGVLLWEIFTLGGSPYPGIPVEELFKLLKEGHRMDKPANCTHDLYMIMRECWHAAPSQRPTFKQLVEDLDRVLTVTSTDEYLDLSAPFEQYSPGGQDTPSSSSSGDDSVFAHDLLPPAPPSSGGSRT

GI50 [nM] | SMILES
100 to 250 | COc1cc(OC)c(Cl)c(Nc2ncncc2-c2cc(N)ncn2)c1Cl [Compound 1, N4′-(2,6-Dichloro-3,5-dimethoxy-phenyl)-[4,5′]bipyrimidinyl-6,4′-diamine]
< 100 | COc1cc(OC)c(Cl)c(Nc2ncncc2-c2cc(Nc3ccc(CN4CCCC4)cn3)ncn2)c1Cl [Compound 2, N4′-(2,6-Dichloro-3,5-dimethoxy-phenyl)-N6-(5-pyrrolidin-1-ylmethyl-pyridin-2-yl)-[4,5′]bipyrimidinyl-6,4′-diamine]
< 100 | COc1cc(OC)c(Cl)c(Nc2ncncc2-c2cc(Nc3ccc(CN4CCN(C)CC4)cn3)ncn2)c1Cl [Compound 3, N4′-(2,6-Dichloro-3,5-dimethoxy-phenyl)-N6-[5-(4-methyl-piperazin-1-ylmethyl)-pyridin-2-yl]-[4,5′]bipyrimidinyl-6,4′-diamine]
< 100 | COc1cc(OC)c(Cl)c(Nc2ncncc2-c2cc(Nc3ccc(CN4CCOCC4)cn3)ncn2)c1Cl [Compound 4, N4′-(2,6-Dichloro-3,5-dimethoxy-phenyl)-N6-(5-morpholin-4-ylmethyl-pyridin-2-yl)-[4,5′]bipyrimidinyl-6,4′-diamine]
< 100 | COc1cc(OC)c(Cl)c(Nc2ncncc2-c2cc(Nc3cc(CN4CCOCC4)ccn3)ncn2)c1Cl [Compound 5, N4′-(2,6-Dichloro-3,5-dimethoxy-phenyl)-N6-(4-morpholin-4-ylmethyl-pyridin-2-yl)-[4,5′]bipyrimidinyl-6,4′-diamine]
< 100 | COc1cc(OC)c(Cl)c(Nc2ncncc2-c2cc(Nc3cc(CN4CCN(C)CC4)ccn3)ncn2)c1Cl [Compound 6, N4′-(2,6-Dichloro-3,5-dimethoxy-phenyl)-N6-[4-(4-methyl-piperazin-1-ylmethyl)-pyridin-2-yl]-[4,5′]bipyrimidinyl-6,4′-diamine]
< 100 | COc1cc(OC)c(Cl)c(Nc2ncncc2-c2cc(Nc3ccc(CN(C)C)cn3)ncn2)c1Cl [Compound 7, N4′-(2,6-Dichloro-3,5-dimethoxy-phenyl)-N6-(5-dimethylaminomethyl-pyridin-2-yl)-[4,5′]bipyrimidinyl-6,4′-diamine]
100 to 250 | COc1cc(OC)c(Cl)c(Nc2ncncc2-c2cc(NC(=O)NCCN3CCN(C)CC3)ncn2)c1Cl [Compound 8, 1-[4′-(2,6-Dichloro-3,5-dimethoxy-phenylamino)-[4,5′]bipyrimidinyl-6-yl]-3-[2-(4-methyl-piperazin-1-yl)-ethyl]-urea]
< 100 | COc1cc(OC)c(Cl)c(Nc2ncncc2-c2cc(NC(=O)NCCN3CCOCC3)ncn2)c1Cl [Compound 9, 1-[4′-(2,6-Dichloro-3,5-dimethoxy-phenylamino)-[4,5′]bipyrimidinyl-6-yl]-3-(2-morpholin-4-yl-ethyl)-urea]
< 100 | CCN1CCN(c2ccc(Nc3cc(-c4cncnc4Nc4c(Cl)c(OC)cc(OC)c4Cl)ncn3)cc2)CC1 [Compound 10, N4′-(2,6-Dichloro-3,5-dimethoxy-phenyl)-N6-[4-(4-ethyl-piperazin-1-yl)-phenyl]-[4,5′]bipyrimidinyl-6,4′-diamine]
< 100 | COc1cc(OC)c(Cl)c(Nc2ncncc2-c2cc(Nc3ccc(N4CCOCC4)cc3)ncn2)c1Cl [Compound 11, N4′-(2,6-Dichloro-3,5-dimethoxy-phenyl)-N6-(4-morpholin-4-yl-phenyl)-[4,5′]bipyrimidinyl-6,4′-diamine]
100 to 250 | COc1cc(OC)c(Cl)c(Nc2ncncc2-c2cc(NCCCN3CCOCC3)ncn2)c1Cl [Compound 12, N4′-(2,6-Dichloro-3,5-dimethoxy-phenyl)-N6-(3-morpholin-4-yl-propyl)-[4,5′]bipyrimidinyl-6,4′-diamine]
250 to 500 | COc1cc(OC)c(Cl)c(Nc2ncncc2-c2cc(NCCCCN(C)C)ncn2)c1Cl [Compound 13, N4′-(2,6-Dichloro-3,5-dimethoxy-phenyl)-N6-(4-dimethylamino-butyl)-[4,5′]bipyrimidinyl-6,4′-diamine]
250 to 500 | COc1cc(OC)c(Cl)c(Nc2ncncc2-c2cc(NCCN3CCN(C)CC3)ncn2)c1Cl [Compound 14, N4′-(2,6-Dichloro-3,5-dimethoxy-phenyl)-N6-[2-(4-methyl-piperazin-1-yl)-ethyl]-[4,5′]bipyrimidinyl-6,4′-diamine]
< 100 | COc1cc(OC)c(Cl)c(Nc2ncncc2-c2cc(Nc3ccc(CN4CCN(C(N)=O)CC4)cn3)ncn2)c1Cl [Compound 15, 4-{6-[4′-(2,6-Dichloro-3,5-dimethoxy-phenylamino)-[4,5′]bipyrimidinyl-6-ylamino]-pyridin-3-ylmethyl}-piperazine-1-carboxylic acid amide]
< 100 | COc1cc(OC)c(Cl)c(Nc2ncncc2-c2cc(Nc3ccc(CN4CCN(C(C)=O)CC4)cn3)ncn2)c1Cl [Compound 16, 1-(4-{6-[4′-(2,6-Dichloro-3,5-dimethoxy-phenylamino)-[4,5′]bipyrimidinyl-6-ylamino]-pyridin-3-ylmethyl}-piperazin-1-yl)-ethanone]
< 100 | CCN(CC)CCOc1ccc(Nc2cc(-c3cncnc3Nc3c(Cl)c(OC)cc(OC)c3Cl)ncn2)cc1 [Compound 17, N4′-(2,6-Dichloro-3,5-dimethoxy-phenyl)-N6-[4-(2-diethylamino-ethoxy)-phenyl]-[4,5′]bipyrimidinyl-6,4′-diamine]
< 100 | COc1cc(OC)c(Cl)c(Nc2ncncc2-c2cc(Nc3ccc(CCN4CCOCC4)cn3)ncn2)c1Cl [Compound 18, N4′-(2,6-Dichloro-3,5-dimethoxy-phenyl)-N6-[5-(2-morpholin-4-yl-ethyl)-pyridin-2-yl]-[4,5′]bipyrimidinyl-6,4′-diamine]
< 100 | COc1cc(OC)c(Cl)c(Nc2ncncc2-c2cc(Nc3ccc(CN4CCN(C(=O)N(C)C)CC4)cn3)ncn2)c1Cl [Compound 19, 4-{6-[4′-(2,6-Dichloro-3,5-dimethoxy-phenylamino)-[4,5′]bipyrimidinyl-6-ylamino]-pyridin-3-ylmethyl}-piperazine-1-carboxylic acid dimethyl-amide]
< 100 | CNC(=O)N1CCN(Cc2ccc(Nc3cc(-c4cncnc4Nc4c(Cl)c(OC)cc(OC)c4Cl)ncn3)nc2)CC1 [Compound 20, 4-{6-[4′-(2,6-Dichloro-3,5-dimethoxy-phenylamino)-[4,5′]bipyrimidinyl-6-ylamino]-pyridin-3-ylmethyl}-piperazine-1-carboxylic acid methylamide]
250 to 500 | COc1cc(OC)c(Cl)c(Nc2ncncc2-c2cc(Nc3cncc(CN4CCOCC4)c3)ncn2)c1Cl [Compound 21, N4′-(2,6-Dichloro-3,5-dimethoxy-phenyl)-N6-(5-morpholin-4-ylmethyl-pyridin-3-yl)-[4,5′]bipyrimidinyl-6,4′-diamine]
< 100 | COc1cc(OC)c(Cl)c(Nc2ncncc2-c2cc(Nc3ccc(CN4CCCCC4)cn3)ncn2)c1Cl [Compound 22, N4′-(2,6-Dichloro-3,5-dimethoxy-phenyl)-N6-(5-piperidin-1-ylmethyl-pyridin-2-yl)-[4,5′]bipyrimidinyl-6,4′-diamine]
250 to 500 | COC(=O)c1cc(OC)c(Cl)c(Nc2ncncc2-c2cc(N)ncn2)c1Cl [Compound 23, 3-(6-Amino-[4,5′]bipyrimidinyl-4′-ylamino)-2,4-dichloro-5-methoxy-benzoic acid methyl ester]
< 100 | CCNC(=O)c1cc(OC)c(Cl)c(Nc2ncncc2-c2cc(Nc3ccc(CN4CCOCC4)cn3)ncn2)c1Cl [Compound 24, 2,4-Dichloro-N-ethyl-5-methoxy-3-[6-(5-morpholin-4-ylmethyl-pyridin-2-ylamino)-[4,5′]bipyrimidinyl-4′-ylamino]-benzamide]
< 100 | CCONC(=O)c1cc(OC)c(Cl)c(Nc2ncncc2-c2cc(Nc3ccc(CN4CCOCC4)cn3)ncn2)c1Cl [Compound 25, 2,4-Dichloro-N-ethoxy-5-methoxy-3-[6-(5-morpholin-4-ylmethyl-pyridin-2-ylamino)-[4,5′]bipyrimidinyl-4′-ylamino]-benzamide]
250 to 500 | COc1cc(C(N)=O)c(Cl)c(Nc2ncncc2-c2cc(Nc3ccc(CN4CCOCC4)cn3)ncn2)c1Cl [Compound 26, 2,4-Dichloro-5-methoxy-3-[6-(5-morpholin-4-yl-methyl-pyridin-2-ylamino)-[4,5′]bipyrimidinyl-4′-ylamino]-benzamide]
< 100 | COC(=O)c1cc(OC)c(Cl)c(Nc2ncncc2-c2cc(Nc3ccc(CN4CCOCC4)cn3)ncn2)c1Cl [Compound 27, 2,4-Dichloro-5-methoxy-3-[6-(5-morpholin-4-ylmethyl-pyridin-2-ylamino)-[4,5′]bipyrimidinyl-4′-ylamino]-benzoic acid methyl ester]
< 100 | CCN(CC)Cc1ccc(Nc2cc(-c3cncnc3Nc3c(Cl)c(OC)cc(OC)c3Cl)ncn2)nc1 [Compound 28, N4′-(2,6-Dichloro-3,5-dimethoxy-phenyl)-N6-(5-diethylamino-methyl-pyridin-2-yl)-[4,5′]bipyrimidinyl-6,4′-diamine]
< 100 | COc1cc(OC)c(Cl)c(Nc2ncncc2-c2cc(Nc3cccc(C(C)O)c3)ncn2)c1Cl (centres unmarked) [Compound 29, 1-{3-[4′-(2,6-Dichloro-3,5-dimethoxy-phenylamino)-[4,5′]bipyrimidinyl-6-ylamino]-phenyl}-ethanol]
